Common to all, as to conditions: synthetic library passage 3, intravenous, relative to wild-type AAV9
Assay [1] relates to brain. Nature of the assay: NGS fold enrichment of synthetic library (passage 3) in BALB/c mice, first cross-species screen. Format: in vivo. Put shortly:
(§1)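 Synthetic capsid library (passage 3) was given intravenously […] to NHPs aged 2-4 years and to BALB/c and C57Bl/6 mice (n=3 each, 6-8 weeks). After about 28 days in vivo, tissue RNA was RT-PCR amplified and NGS-sequenced; values are fold enrichment per variant relative to wild-type AAV9.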

Assay [2] relates to brain. Nature of the assay: NGS fold enrichment of synthetic library (passage 3) in C57Bl/6 mice, first cross-species screen. Format: in vivo. Put shortly:
as §1

Assay [3] deals with brain, spinal cord, and DRG of the NHPs. Nature of the assay: NGS fold enrichment of synthetic library (passage 3) in NHPs, first cross-species screen. Format: in vivo, cynomolgus macaques (Macaca fascicularis). Put shortly: as §1
Setting [4] is: RNA from brain of BALB/c mice, NGS.
Setting [5] is: RNA from brain of C57Bl/6 mice, NGS.
The mark [6] stands for this setting: RNA from spinal cord of NHPs, NGS.

We go through 26 sequences from US20260250318A1, “COMPOSITIONS AND METHODS FOR CROSSING THE BLOOD BRAIN BARRIER” (VOYAGER THERAPEUTICS, INC., priority 2022, published 2026).

With GMRMEYQSGQNQQT, the “Fold enrichment over AAV9 in the brain of Mice (BALB/c)” value (“Fold enrichment over AAV9 … (BALB/c)” for short) in the assay on brain [1] (RNA NGS, brain of BALB/c mice) was found to be 0.632 fold. In addition, the “Fold enrichment over AAV9 in the brain of Mice (C57Bl/6)” value (shortened to “Fold enrichment over AAV9 … (C57Bl/6)”) in the assay on brain [2] (RNA NGS, brain of C57Bl/6 mice) is 0.644 fold. Moreover, the “Fold enrichment over AAV9 in the brain of NHPs” value in assay [3] (RNA NGS, brain of NHPs) turned out to be 1.729 fold. For the same sequence, the “Fold enrichment over AAV9 in the spinal cord of NHPs” value in assay [3] (RNA NGS, spinal cord of NHPs) amounted to 3.695 fold.
In the case of GSGQLGLSVTNQQT, the “Fold enrichment over AAV9 … (BALB/c)” value in the assay on brain [1] (setting [4]) stood at 0.376 fold. For the same sequence, the “Fold enrichment over AAV9 … (C57Bl/6)” value in the assay on brain [2] (setting [5]) was 1.395 fold. Further, the “Fold enrichment over AAV9 in the brain of NHPs” value in assay [3] (RNA from brain of NHPs, NGS) was 1.364 fold. Further, the “Fold enrichment over AAV9 in the spinal cord of NHPs” value in assay [3] (setting [6]) is 6.906 fold.
Turning to GSGSVGFIGQNQQT, the “Fold enrichment over AAV9 … (BALB/c)” value in the assay with brain [1] (setting [4]) worked out at 0.445 fold. For the same sequence, the “Fold enrichment over AAV9 … (C57Bl/6)” value in the assay with brain [2] (setting [5]) was found to be 0.689 fold. In addition, the “Fold enrichment over AAV9 in the brain of NHPs” value in assay [3] (RNA from brain of NHPs, NGS) stood at 1.227 fold. In assay [3] (setting [6]), the “Fold enrichment over AAV9 in the spinal cord of NHPs” value came out at 8.261 fold.
The matching figures for GSGQNQQIISTKIT: 0.710 fold, 0.951 fold, 1.275 fold and 0.000 fold.
The matching figures for GSGQNQQPPLATRT: 0.287 fold, 0.593 fold, 1.386 fold and 2.295 fold.
As for GHTLTLSSGQNQQT, the “Fold enrichment over AAV9 … (BALB/c)” value in the assay with brain [1] (RNA NGS, brain of BALB/c mice) came to 0.606 fold. Moreover, the “Fold enrichment over AAV9 … (C57Bl/6)” value in the assay on brain [2] (RNA NGS, brain of C57Bl/6 mice) is listed as 0.648 fold. For the same sequence, in assay [3] (RNA NGS, brain of NHPs), the “Fold enrichment over AAV9 in the brain of NHPs” value was 3.405 fold. Also, in assay [3] (RNA NGS, spinal cord of NHPs), the “Fold enrichment over AAV9 in the spinal cord of NHPs” value amounted to 5.648 fold.
As for GSGQYASSIPNQQT, the “Fold enrichment over AAV9 … (BALB/c)” value in the assay with brain [1] (RNA NGS, brain of BALB/c mice) came out at 0.489 fold. Moreover, in the assay with brain [2] (RNA NGS, brain of C57Bl/6 mice), the “Fold enrichment over AAV9 … (C57Bl/6)” value is on record as 1.022 fold. In addition, in assay [3] (RNA NGS, brain of NHPs), the “Fold enrichment over AAV9 in the brain of NHPs” value is given as 2.346 fold. In addition, the “Fold enrichment over AAV9 in the spinal cord of NHPs” value in assay [3] (RNA NGS, spinal cord of NHPs) was 3.321 fold.
The matching figures for GSNGFTALGQNQQT: 0.332 fold, 0.830 fold, 3.361 fold and 2.663 fold.
In the case of GSGSSSMSFQNQQT, the “Fold enrichment over AAV9 … (BALB/c)” value in the assay with brain [1] (setting [4]) is 0.095 fold. Also, in the assay on brain [2] (setting [5]), the “Fold enrichment over AAV9 … (C57Bl/6)” value was 0.466 fold. For the same sequence, the “Fold enrichment over AAV9 in the brain of NHPs” value in assay [3] (RNA from brain of NHPs, NGS) was determined as 1.279 fold. Moreover, the “Fold enrichment over AAV9 in the spinal cord of NHPs” value in assay [3] (setting [6]) was determined as 0.540 fold.
With GSGTQIPSQQNQQT, the “Fold enrichment over AAV9 … (BALB/c)” value in the assay on brain [1] (RNA NGS, brain of BALB/c mice) was determined as 0.151 fold. Further, in the assay on brain [2] (RNA NGS, brain of C57Bl/6 mice), the “Fold enrichment over AAV9 … (C57Bl/6)” value turned out to be 0.470 fold. Further, the “Fold enrichment over AAV9 in the brain of NHPs” value in assay [3] (RNA NGS, brain of NHPs) was 3.112 fold. For the same sequence, the “Fold enrichment over AAV9 in the spinal cord of NHPs” value in assay [3] (RNA NGS, spinal cord of NHPs) is given as 1.224 fold.
The matching figures for GSPYMGATGQNQQT: 0.254 fold, 0.918 fold, 1.083 fold and 5.364 fold.
The matching figures for GSGQMASRESNQQT: 0.288 fold, 0.341 fold, 2.492 fold and 0.300 fold.
With GSGTHYDNRQNQQT, the “Fold enrichment over AAV9 … (BALB/c)” value with brain [1] (RNA NGS, brain of BALB/c mice) turned out to be 0.486 fold. Moreover, the “Fold enrichment over AAV9 … (C57Bl/6)” value with brain [2] (RNA NGS, brain of C57Bl/6 mice) is recorded as 0.612 fold. Moreover, in assay [3] (RNA NGS, brain of NHPs), the “Fold enrichment over AAV9 in the brain of NHPs” value was 1.054 fold. For the same sequence, the “Fold enrichment over AAV9 in the spinal cord of NHPs” value in assay [3] (RNA NGS, spinal cord of NHPs) is given as 0.072 fold.
Take GSGIGSHIPQNQQT: in the assay with brain [1] (setting [4]), the “Fold enrichment over AAV9 … (BALB/c)” value is on record as 0.597 fold. Further, the “Fold enrichment over AAV9 … (C57Bl/6)” value with brain [2] (setting [5]) is on record as 0.822 fold. Besides, the “Fold enrichment over AAV9 in the brain of NHPs” value in assay [3] (RNA from brain of NHPs, NGS) is 1.319 fold. In addition, the “Fold enrichment over AAV9 in the spinal cord of NHPs” value in assay [3] (setting [6]) stood at 0.173 fold.
In the case of GRGPKQSNIQNQQT, the “Fold enrichment over AAV9 … (BALB/c)” value in the assay with brain [1] (setting [4]) turned out to be 2.490 fold. Besides, the “Fold enrichment over AAV9 … (C57Bl/6)” value in the assay on brain [2] (setting [5]) worked out at 0.771 fold. Further, the “Fold enrichment over AAV9 in the brain of NHPs” value in assay [3] (RNA from brain of NHPs, NGS) came to 1.125 fold. Also, the “Fold enrichment over AAV9 in the spinal cord of NHPs” value in assay [3] (setting [6]) is 0.737 fold.
The matching figures for GSGQNIGHSLPQQT: 0.478 fold, 0.740 fold, 1.264 fold and 6.183 fold.
Take GYFVAAWSGQNQQT: in the assay on brain [1] (RNA NGS, brain of BALB/c mice), the “Fold enrichment over AAV9 … (BALB/c)” value came out at 0.175 fold. The “Fold enrichment over AAV9 … (C57Bl/6)” value with brain [2] (RNA NGS, brain of C57Bl/6 mice) was 0.071 fold. Besides, the “Fold enrichment over AAV9 in the brain of NHPs” value in assay [3] (RNA NGS, brain of NHPs) amounted to 4.488 fold. Further, in assay [3] (RNA NGS, spinal cord of NHPs), the “Fold enrichment over AAV9 in the spinal cord of NHPs” value was 0.000 fold.
Turning to GSGQNQQSQYMPRT, the “Fold enrichment over AAV9 … (BALB/c)” value with brain [1] (setting [4]) came out at 0.520 fold. Also, the “Fold enrichment over AAV9 … (C57Bl/6)” value in the assay with brain [2] (setting [5]) amounted to 0.549 fold. In assay [3] (RNA from brain of NHPs, NGS), the “Fold enrichment over AAV9 in the brain of NHPs” value amounted to 1.234 fold. For the same sequence, the “Fold enrichment over AAV9 in the spinal cord of NHPs” value in assay [3] (setting [6]) is 0.401 fold.
Regarding GSGQNQQTRQEGST, the “Fold enrichment over AAV9 … (BALB/c)” value in the assay on brain [1] (setting [4]) came out at 0.718 fold. The “Fold enrichment over AAV9 … (C57Bl/6)” value with brain [2] (setting [5]) was 0.645 fold. The “Fold enrichment over AAV9 in the brain of NHPs” value in assay [3] (RNA from brain of NHPs, NGS) is 1.339 fold. Besides, the “Fold enrichment over AAV9 in the spinal cord of NHPs” value in assay [3] (setting [6]) is 0.000 fold.
As for GFAHQASSGQNQQT, the “Fold enrichment over AAV9 … (BALB/c)” value in the assay on brain [1] (RNA NGS, brain of BALB/c mice) was determined as 1.080 fold. The “Fold enrichment over AAV9 … (C57Bl/6)” value in the assay with brain [2] (RNA NGS, brain of C57Bl/6 mice) amounted to 1.638 fold. For the same sequence, the “Fold enrichment over AAV9 in the brain of NHPs” value in assay [3] (RNA NGS, brain of NHPs) came out at 1.587 fold. The “Fold enrichment over AAV9 in the spinal cord of NHPs” value in assay [3] (RNA NGS, spinal cord of NHPs) was 1.852 fold.
The matching figures for GLAGHTVSGQNQQT: 0.202 fold, 0.972 fold, 3.632 fold and 0.229 fold.
Regarding GSGQNQQTMLGKPC, in the assay with brain [1] (setting [4]), the “Fold enrichment over AAV9 … (BALB/c)” value came out at 0.992 fold. The “Fold enrichment over AAV9 … (C57Bl/6)” value with brain [2] (setting [5]) is on record as 1.090 fold. Moreover, the “Fold enrichment over AAV9 in the brain of NHPs” value in assay [3] (RNA from brain of NHPs, NGS) was found to be 1.125 fold. Moreover, the “Fold enrichment over AAV9 in the spinal cord of NHPs” value in assay [3] (setting [6]) turned out to be 0.047 fold.
As for GSGQNQQTMIANIR, in the assay with brain [1] (RNA NGS, brain of BALB/c mice), the “Fold enrichment over AAV9 … (BALB/c)” value is 0.458 fold. Besides, the “Fold enrichment over AAV9 … (C57Bl/6)” value in the assay with brain [2] (RNA NGS, brain of C57Bl/6 mice) turned out to be 0.379 fold. Moreover, the “Fold enrichment over AAV9 in the brain of NHPs” value in assay [3] (RNA NGS, brain of NHPs) worked out at 1.076 fold. Moreover, the “Fold enrichment over AAV9 in the spinal cord of NHPs” value in assay [3] (RNA NGS, spinal cord of NHPs) worked out at 0.000 fold.
The matching figures for GANMGHVSGQNQQT: 1.138 fold, 1.302 fold, 2.020 fold and 0.810 fold.
Consider GSGQSFQMHTNQQT, for which the “Fold enrichment over AAV9 … (BALB/c)” value in the assay with brain [1] (RNA NGS, brain of BALB/c mice) came out at 0.325 fold. Moreover, in the assay on brain [2] (RNA NGS, brain of C57Bl/6 mice), the “Fold enrichment over AAV9 … (C57Bl/6)” value came to 0.503 fold. The “Fold enrichment over AAV9 in the brain of NHPs” value in assay [3] (RNA NGS, brain of NHPs) worked out at 1.504 fold. The “Fold enrichment over AAV9 in the spinal cord of NHPs” value in assay [3] (RNA NGS, spinal cord of NHPs) was found to be 9.770 fold.
The matching figures for GGGTKMDSGQNQQT: 0.297 fold, 0.733 fold, 3.034 fold and 0.000 fold.
